# Read-outs that look alike come from different tables or passages of the source.
# Legend:
# mtOXPHOS transcripts = assay type: cell-based, mouse; conditions: for mitoOX (composite Z-score): normalized score vs mock-treated (DMSO) wells
# reactive oxygen species = assay type: cell-based, mouse; conditions: for ROS (composite Z-score): normalized score vs mock-treated (DMSO) wells
# C2C12 myotubes = conditions: for Viability (composite Z-score): normalized score vs mock-treated (DMSO) wells
# [1] = tested on: mitochondrial membrane potential; assay type: cell-based, mouse; conditions: for ΔΨm (composite Z-score): normalized score vs mock-treated (DMSO) wells
# nuOXPHOS transcripts = assay type: cell-based, mouse; conditions: for nucOX (composite Z-score): normalized score vs mock-treated (DMSO) wells
# cytochrome c = assay type: cell-based, mouse; conditions: for cyt c (composite Z-score): normalized score vs mock-treated (DMSO) wells
# [2] = tested on: cellular dehydrogenase activity; conditions: for MTT (composite Z-score): normalized score vs mock-treated (DMSO) wells
# OXPHOS gene expression = assay type: cell-based, mouse; conditions: for GE-HTS (composite Z-score): normalized score vs mock-treated (DMSO) wells
# [3] = normalized composite Z-score vs mock-treated (DMSO) wells, Conc 20 μM
# [4] = composite Z-score vs DMSO, Conc 10.24 μM
# [5] = composite Z-score vs DMSO, Conc 20 μM
# [6] = Table 7, C2C12 myotubes, 48 h, composite Z-score
smiles,measurement,setting,value
COc1cc(OC)c2c(c1)O[C@H](c1ccc(OC)c(OC)c1)[C@@H](O)C2 [catechin tetramethylether],mitoOX,mtOXPHOS transcripts; [3],−0.798
same,ROS,reactive oxygen species; [3],−0.094
same,Viability,C2C12 myotubes; [3],0.435
same,ΔΨm,[1]; [3],−0.172
same,nucOX,nuOXPHOS transcripts; [3],−1.106
same,cyt c,cytochrome c; [3],0.586
same,MTT,[2]; [3],−0.573
same,GE-HTS,OXPHOS gene expression; [3],−1.052
CO[C@H]1C[C@H](O[C@H]2CC[C@]3(C=O)[C@H]4CC[C@]5(C)[C@@H](C6=CC(=O)OC6)CC[C@]5(O)[C@@H]4CC[C@]3(O)C2)O[C@H](C)[C@H]1O [cymarin],mitoOX (composite Z-score),mtOXPHOS transcripts; Conc 20 μM,−0.464
same,ROS (composite Z-score),reactive oxygen species; Conc 20 μM,0.695
same,Viability (composite Z-score),C2C12 myotubes; Conc 20 μM,−1.155
same,ΔΨm (composite Z-score),[1]; Conc 20 μM,−0.996
same,nucOX (composite Z-score),nuOXPHOS transcripts; Conc 20 μM,−0.412
same,cyt c (composite Z-score),cytochrome c; Conc 20 μM,0.356
same,MTT (composite Z-score),[2]; Conc 20 μM,−1.849
same,GE-HTS (composite Z-score),OXPHOS gene expression; Conc 20 μM,−0.473
C[N+]1(CCCCC[N+]2(C)CCCC2)CCCC1 [pentolinium],mitoOX,mtOXPHOS transcripts; [4],0.444
same,mitoOX,mtOXPHOS transcripts; [5],−1.080
same,ROS,reactive oxygen species; [4],3.608
same,ROS,reactive oxygen species; [5],0.392
same,Viability,C2C12 myotubes; [4],0.213
same,Viability,C2C12 myotubes; [5],−0.568
same,ΔΨm,[1]; [4],−0.024
same,ΔΨm,[1]; [5],0.209
same,nucOX,nuOXPHOS transcripts; [4],0.489
same,nucOX,nuOXPHOS transcripts; [5],−0.840
same,cyt c,cytochrome c; [4],0.387
same,cyt c,cytochrome c; [5],−0.703
same,MTT,[2]; [4],0.254
same,MTT,[2]; [5],−0.771
same,GE-HTS,OXPHOS gene expression; [4],0.521
same,GE-HTS,OXPHOS gene expression; [5],−1.000
COc1ccc2c(c1)OCc1c-2oc2cc(OC)ccc12 [dehydrovariabilin],mitoOX,mtOXPHOS transcripts; [5],0.416
same,ROS,reactive oxygen species; [5],0.167
same,Viability,C2C12 myotubes; [5],0.309
same,ΔΨm,[1]; [5],0.951
same,nucOX,nuOXPHOS transcripts; [5],0.277
same,cyt c,cytochrome c; [5],0.043
same,MTT,[2]; [5],−1.225
same,GE-HTS,OXPHOS gene expression; [5],0.367
"C=CC(C)(O)CCC=C(C)C (single isomer, unassigned; (+)) [(+)-linalool]",mitoOX (composite Z-score),mtOXPHOS transcripts; Conc 20 μM,−0.342
same,ROS (composite Z-score),reactive oxygen species; Conc 20 μM,0.481
same,Viability (composite Z-score),C2C12 myotubes; Conc 20 μM,−0.653
same,ΔΨm (composite Z-score),[1]; Conc 20 μM,−0.810
same,nucOX (composite Z-score),nuOXPHOS transcripts; Conc 20 μM,0.131
same,cyt c (composite Z-score),cytochrome c; Conc 20 μM,0.690
same,MTT (composite Z-score),[2]; Conc 20 μM,−1.338
same,GE-HTS (composite Z-score),OXPHOS gene expression; Conc 20 μM,−0.007
COc1ccc2c(c1)OC/C(=C/c1ccc(OC)c(OC)c1)C2=O [sappanone A trimethyl ether],mitoOX (composite Z-score),mtOXPHOS transcripts; Conc 20 μM,0.094
same,ROS (composite Z-score),reactive oxygen species; Conc 20 μM,0.120
same,Viability (composite Z-score),C2C12 myotubes; Conc 20 μM,−0.259
same,ΔΨm (composite Z-score),[1]; Conc 20 μM,−0.290
same,nucOX (composite Z-score),nuOXPHOS transcripts; Conc 20 μM,1.458
same,cyt c (composite Z-score),cytochrome c; Conc 20 μM,−0.471
same,MTT (composite Z-score),[2]; Conc 20 μM,−0.980
same,GE-HTS (composite Z-score),OXPHOS gene expression; Conc 20 μM,1.090
NNC(=O)c1ccncc1.Nc1ccc(C(=O)O)c(O)c1 [pasiniazid],mitoOX,mtOXPHOS transcripts; [5],−0.164
same,ROS,reactive oxygen species; [5],0.502
same,Viability,C2C12 myotubes; [5],−0.883
same,ΔΨm,[1]; [5],−0.809
same,nucOX,nuOXPHOS transcripts; [5],−0.022
same,cyt c,cytochrome c; [5],0.590
same,MTT,[2]; [5],−0.807
same,GE-HTS,OXPHOS gene expression; [5],−0.059
CC(=O)O[C@H]1CC[C@@]2(C)C(=CC[C@H]3[C@@H]4CC[C@H]([C@H](C)CCCC(C)C)[C@@]4(C)CC[C@@H]32)C1 [cholesteryl acetate],mitoOX,mtOXPHOS transcripts; [5],0.142
same,ROS,reactive oxygen species; [5],0.524
same,Viability,C2C12 myotubes; [5],−1.471
same,ΔΨm,[1]; [5],−0.657
same,nucOX,nuOXPHOS transcripts; [5],0.273
same,cyt c,cytochrome c; [5],0.097
same,MTT,[2]; [5],−2.138
same,GE-HTS,OXPHOS gene expression; [5],0.228
CC1(C)[C@@H](O[C@H]2O[C@H](C(=O)O)[C@@H](O)[C@H](O)[C@H]2O[C@@H]2O[C@H](C(=O)O)[C@@H](O)[C@H](O)[C@H]2O)CC[C@]2(C)[C@H]3C(=O)C=C4[C@@H]5C[C@@](C)(C(=O)O)CC[C@]5(C)CC[C@@]4(C)[C@]3(C)CC[C@@H]12 [glycyrrhizic acid],mitoOX,mtOXPHOS transcripts; [5],−0.753
same,ROS,reactive oxygen species; [5],0.578
same,Viability,C2C12 myotubes; [5],0.254
same,ΔΨm,[1]; [5],−0.606
same,nucOX,nuOXPHOS transcripts; [5],−0.227
same,cyt c,cytochrome c; [5],0.339
same,MTT,[2]; [5],−0.746
same,GE-HTS,OXPHOS gene expression; [5],−0.424
"CC(=O)OCC(=O)[C@@]1(O)CCC2C3CC[C@@H]4C[C@H](OC(C)=O)CC[C@]4(C)C3C(=O)C[C@@]21C (stereo partly shown) [tetrahydrocortisone-3,21-diacetate]",mitoOX,mtOXPHOS transcripts; [5],0.269
same,ROS,reactive oxygen species; [5],0.456
same,Viability,C2C12 myotubes; [5],−0.030
same,ΔΨm,[1]; [5],0.074
same,nucOX,nuOXPHOS transcripts; [5],−0.558
same,cyt c,cytochrome c; [5],−0.397
same,MTT,[2]; [5],−0.664
same,GE-HTS,OXPHOS gene expression; [5],−0.320
COC(=O)c1c(C)c2c(c(C)c1OC)OC(=O)c1c(C)c(Cl)c(OC)c(Cl)c1O2 [leoidin dimethyl ether],mitoOX,mtOXPHOS transcripts; [3],−1.691
same,ROS,reactive oxygen species; [3],−0.121
same,Viability,C2C12 myotubes; [3],0.677
same,ΔΨm,[1]; [3],−0.320
same,nucOX,nuOXPHOS transcripts; [3],−0.595
same,cyt c,cytochrome c; [3],1.032
same,MTT,[2]; [3],−0.726
same,GE-HTS,OXPHOS gene expression; [3],−1.008
CC(=O)O[C@H]1CC[C@@]2(C)[C@H](CC[C@@H]3[C@@H]2CC[C@]2(C)[C@@H](C4=CC(=O)OC4)[C@@H](OC(C)=O)C[C@]32O)C1 [gitoxigenin diacetate],mitoOX,mtOXPHOS transcripts; [5],−0.322
same,ROS,reactive oxygen species; [5],0.508
same,Viability,C2C12 myotubes; [5],0.187
same,ΔΨm,[1]; [5],−0.792
same,nucOX,nuOXPHOS transcripts; [5],−0.649
same,cyt c,cytochrome c; [5],0.684
same,MTT,[2]; [5],−1.077
same,GE-HTS,OXPHOS gene expression; [5],−0.594
NC(=O)N/N=C/c1ccc([N+](=O)[O-])o1 [nitrofurazone],mitoOX,mtOXPHOS transcripts; [5],−0.643
same,ROS,reactive oxygen species; [5],2.173
same,Viability,C2C12 myotubes; [5],0.544
same,ΔΨm,[1]; [5],−0.185
same,nucOX,nuOXPHOS transcripts; [5],0.038
same,cyt c,cytochrome c; [5],0.785
same,MTT,[2]; [5],−0.617
same,GE-HTS,OXPHOS gene expression; [5],−0.199
C=C/C(C)=C\CC1C(C)(O)CCC2C(C)(C)CCCC21C (stereo not shown) [abienol],mitoOX,mtOXPHOS transcripts; [3],1.214
same,ROS,reactive oxygen species; [3],2.467
same,Viability,C2C12 myotubes; [3],−0.199
same,ΔΨm,[1]; [3],0.334
same,nucOX,nuOXPHOS transcripts; [3],0.091
same,cyt c,cytochrome c; [3],0.211
same,MTT,[2]; [3],0.338
same,GE-HTS,OXPHOS gene expression; [3],0.498
"COc1ccc(C[C@H](N)C(=O)N[C@H]2[C@@H](O)[C@H](n3cnc4c(N(C)C)ncnc43)O[C@@H]2CO)cc1 [Puromycin, reference compound]",mito-OXPHOS Z,mtOXPHOS transcripts; [6],1.24
same,mitoOX,mtOXPHOS transcripts; [5],−1.331
same,ROS,reactive oxygen species; [5],−2.665
same,Viability,C2C12 myotubes; [5],−5.718
same,ΔΨm,[1]; [5],−3.989
same,nucOXPHOS Z,nuOXPHOS transcripts; [6],−2.80
same,nucOX,nuOXPHOS transcripts; [5],−4.017
same,cyt c,cytochrome c; [5],−5.573
same,MTT,[2]; [5],−5.624
same,GE-HTS,OXPHOS gene expression; [5],−3.348
"COc1cc(OC)c2c(=O)c(-c3ccccc3)c(C)oc2c1OC [2-methyl-5,7,8-trimethoxyisoflavone]",mitoOX,mtOXPHOS transcripts; [5],0.081
same,ROS,reactive oxygen species; [5],−0.371
same,Viability,C2C12 myotubes; [5],−0.656
same,ΔΨm,[1]; [5],0.306
same,nucOX,nuOXPHOS transcripts; [5],0.629
same,cyt c,cytochrome c; [5],1.063
same,MTT,[2]; [5],−0.531
same,GE-HTS,OXPHOS gene expression; [5],0.495
CC(=O)Nc1c(I)cc(I)c(C(=O)O)c1I [acetriazoic acid],mitoOX,mtOXPHOS transcripts; [5],−0.320
same,ROS,reactive oxygen species; [5],1.158
same,Viability,C2C12 myotubes; [5],0.205
same,ΔΨm,[1]; [5],−0.059
same,nucOX,nuOXPHOS transcripts; [5],−0.870
same,cyt c,cytochrome c; [5],−1.416
same,MTT,[2]; [5],−0.938
same,GE-HTS,OXPHOS gene expression; [5],−0.710
O=C(O)c1nc2cc(Cl)c(Cl)cc2nc1O,mitoOX (composite Z-score),mtOXPHOS transcripts; Conc 20 μM,−0.230
same,ROS (composite Z-score),reactive oxygen species; Conc 20 μM,0.666
same,Viability (composite Z-score),C2C12 myotubes; Conc 20 μM,0.109
same,ΔΨm (composite Z-score),[1]; Conc 20 μM,−0.521
same,nucOX (composite Z-score),nuOXPHOS transcripts; Conc 20 μM,−0.313
same,cyt c (composite Z-score),cytochrome c; Conc 20 μM,0.217
same,MTT (composite Z-score),[2]; Conc 20 μM,−0.131
same,GE-HTS (composite Z-score),OXPHOS gene expression; Conc 20 μM,−0.320
